Results taken from ChEMBL document CHEMBL1201862, “PubChem BioAssay data set” (2004).
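Assay format: 96-well plates, 48-hour exposure. GI50 marks 50% less growth.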 Active and inactive are the calls of the source. Cut-off read from the data, not from the text of the source: active = GI50 up to about 1.1 µM and inactive = higher.

Legend:
Assay in all cases: NCI anticancer screen, dose series, 48 h
DLD-1 = tested on: DLD-1
DMS-114 = tested on: DMS-114
DMS-273 = tested on: DMS-273
K562 = tested on: K562
KM-20L2 = tested on: KM-20L2
M19-MEL = tested on: M19-MEL
MCF7 = tested on: MCF7
Malme-3M = tested on: Malme-3M
NCI-H226 = tested on: NCI-H226
NCI/ADR-RES = tested on: NCI/ADR-RES
SNB-78 = tested on: SNB-78
XF498 = tested on: XF498
CAKI-1 = tested on: CAKI-1
ACHN = tested on: ACHN
M14 = tested on: M14
SR = tested on: SR
TK-10 = tested on: TK-10

| SMILES | GI50 (DLD-1) | GI50 (DMS-114) | GI50 (DMS-273) | GI50 (K562) | GI50 (KM-20L2) | GI50 (M19-MEL) | GI50 (MCF7) | GI50 (Malme-3M) | GI50 (NCI-H226) | GI50 (NCI/ADR-RES) | GI50 (SNB-78) | GI50 (XF498) | GI50 (CAKI-1) | GI50 (ACHN) | GI50 (M14) | GI50 (SR) | GI50 (TK-10) |
| --- | --- | --- | --- | --- | --- | --- | --- | --- | --- | --- | --- | --- | --- | --- | --- | --- | --- |
| Nc1c(S(=O)(=O)O)cc2cc(S(=O)(=O)O)ccc2c1/N=N/c1ccc(-c2ccc(/N=N/c3c(N)c(S(=O)(=O)O)cc4cc(S(=O)(=O)O)ccc34)c(S(=O)(=O)O)c2)cc1 | > 100 µM (inactive) | > 100 µM (inactive) | > 100 µM (inactive) | > 100 µM (inactive) | 66.4 µM (inactive) | > 100 µM (inactive) | 22.8 µM (inactive) | > 100 µM (inactive) | > 81.3 µM (inactive) | > 100 µM (inactive) | 97.7 µM (inactive) | > 64.6 µM (inactive) |  |  |  |  |  |
| COc1cc2cc3c4cc(OC)c(OC)cc4cc[n+]3cc2cc1OC | > 100 µM (inactive) | 1 µM (active) | > 100 µM (inactive) | > 100 µM (inactive) | > 57.4 µM (inactive) | > 100 µM (inactive) | > 31.6 µM (inactive) | > 100 µM (inactive) | 71.4 µM (inactive) | > 100 µM (inactive) | > 74.3 µM (inactive) | > 100 µM (inactive) | > 100 µM (inactive) |  |  |  |  |
| c1ccc(C(c2ccccc2)[P+](c2ccccc2)(c2ccccc2)c2ccccc2)cc1 | 2.1 µM (inactive) | 0.324 µM (active) | 0.349 µM (active) | 0.427 µM (active) | 0.374 µM (active) | 0.397 µM (active) | 0.449 µM (active) | 0.726 µM (active) | 0.684 µM (active) | 35.2 µM (inactive) | 0.612 µM (active) | 0.214 µM (active) | 2.69 µM (inactive) |  |  |  |  |
| COc1ccc(NC(=O)C(=O)C(C(=O)c2ccccc2)C2OC(=O)c3ccccc32)c([N+](=O)[O-])c1 (stereo unspecified) | > 100 µM (inactive) | > 100 µM (inactive) | > 100 µM (inactive) | > 100 µM (inactive) | > 100 µM (inactive) | > 100 µM (inactive) |  | > 100 µM (inactive) | > 100 µM (inactive) |  | > 100 µM (inactive) | > 100 µM (inactive) | > 100 µM (inactive) | > 100 µM (inactive) | > 100 µM (inactive) | > 100 µM (inactive) | > 100 µM (inactive) |
| COc1cccc2c1C(=O)c1c(O)c3c(c(O)c1C2=O)CC(O)(C(=O)CO)CC3OC1CC(N)C(I)C(C)O1 (stereo unspecified) | 2.54 µM (inactive) | 1.63 µM (inactive) | 0.424 µM (active) | 4.76 µM (inactive) | 7.18 µM (inactive) | 2.7 µM (inactive) | 1.17 µM (inactive) | 6.05 µM (inactive) | 0.787 µM (active) | 12.4 µM (inactive) | 25.7 µM (inactive) | 6.64 µM (inactive) | 2.87 µM (inactive) |  |  |  |  |
